Test results reported in ChEMBL document CHEMBL3259590, “The discovery of diazepinone-based 5-HT3 receptor partial agonists” (Bioorg Med Chem Lett, 2014).
pEC50, pIC50, pKi: −log10 of the molar value.

Legend:
[1] = target: T1, 5-hydroxytryptamine receptor 3A (Mus musculus, UniProt P23979); experiment: Agonist activity at mouse 5-HT3A receptor expressed in HEK293 cells in presence of carbachol; format: cell-based
T1 sequence (P23979 whole entry): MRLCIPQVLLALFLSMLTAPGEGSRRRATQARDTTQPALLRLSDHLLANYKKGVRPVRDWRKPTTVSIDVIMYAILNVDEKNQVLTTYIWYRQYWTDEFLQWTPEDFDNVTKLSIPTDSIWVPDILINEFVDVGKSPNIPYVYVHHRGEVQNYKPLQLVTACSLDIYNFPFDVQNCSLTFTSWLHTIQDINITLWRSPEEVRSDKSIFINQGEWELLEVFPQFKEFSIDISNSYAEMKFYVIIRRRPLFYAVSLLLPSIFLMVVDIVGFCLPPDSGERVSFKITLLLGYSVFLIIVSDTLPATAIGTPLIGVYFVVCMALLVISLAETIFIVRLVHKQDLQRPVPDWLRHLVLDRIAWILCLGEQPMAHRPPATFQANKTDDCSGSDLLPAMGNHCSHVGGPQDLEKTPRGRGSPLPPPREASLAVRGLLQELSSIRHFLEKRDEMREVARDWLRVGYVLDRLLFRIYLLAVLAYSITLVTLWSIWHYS

[2] = target: T2, 5-hydroxytryptamine receptor 3A (Homo sapiens, UniProt P46098); experiment: Agonist activity at human 5-HT3A receptor expressed in HEK293 cells in presence of carbachol; format: cell-based
T2 sequence (P46098 whole entry): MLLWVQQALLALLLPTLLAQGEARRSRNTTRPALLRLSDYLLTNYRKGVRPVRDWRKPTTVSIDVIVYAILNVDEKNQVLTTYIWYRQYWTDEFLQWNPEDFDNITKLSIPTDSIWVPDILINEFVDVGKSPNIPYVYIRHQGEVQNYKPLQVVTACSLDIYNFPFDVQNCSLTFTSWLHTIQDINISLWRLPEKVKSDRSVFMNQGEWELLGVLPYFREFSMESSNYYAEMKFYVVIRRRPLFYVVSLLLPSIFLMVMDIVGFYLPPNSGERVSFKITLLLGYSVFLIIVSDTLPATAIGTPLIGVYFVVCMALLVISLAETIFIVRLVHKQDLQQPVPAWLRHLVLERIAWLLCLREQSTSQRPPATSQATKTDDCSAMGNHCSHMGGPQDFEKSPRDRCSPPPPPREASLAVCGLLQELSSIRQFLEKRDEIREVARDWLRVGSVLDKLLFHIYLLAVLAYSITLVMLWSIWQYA

[3] = Intrinsic clearance in human liver microsomes; format: ADME; conditions: read-out: CLH
Cytochrome P450 2B6 = target: T3, Cytochrome P450 2B6 (Homo sapiens, UniProt P20813); experiment: Inhibition of CYP2B6 (unknown origin); format: ADME
T3 sequence (P20813 whole entry): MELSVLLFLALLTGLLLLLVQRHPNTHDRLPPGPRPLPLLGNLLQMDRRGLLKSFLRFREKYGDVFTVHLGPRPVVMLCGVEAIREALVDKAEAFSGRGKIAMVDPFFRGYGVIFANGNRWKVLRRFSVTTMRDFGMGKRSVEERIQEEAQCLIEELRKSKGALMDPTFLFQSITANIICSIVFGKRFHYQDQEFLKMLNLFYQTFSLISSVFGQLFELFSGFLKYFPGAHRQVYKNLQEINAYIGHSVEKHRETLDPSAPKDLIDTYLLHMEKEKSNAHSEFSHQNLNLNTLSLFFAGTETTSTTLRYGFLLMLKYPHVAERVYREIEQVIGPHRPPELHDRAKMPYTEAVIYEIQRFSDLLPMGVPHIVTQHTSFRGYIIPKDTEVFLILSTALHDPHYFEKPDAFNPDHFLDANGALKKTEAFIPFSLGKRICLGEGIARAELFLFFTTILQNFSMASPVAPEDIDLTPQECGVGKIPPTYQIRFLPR

[4] = target: T4, 5-hydroxytryptamine receptor 3A (Mus musculus) (UniProt P23979); experiment: Partial agonist activity at mouse 5-HT3A receptor expressed in HEK293 cells assessed as change in Ca2+ level measured as intrinsic activity at 1 uM relative to 5-HT in presence of carbachol; format: cell-based
T4 sequence (whole entry): T1 sequence (P23979 whole entry)

Cytochrome P450 2C19 = Cytochrome P450 2C19 (Homo sapiens, UniProt P33261); experiment: Inhibition of CYP2C19 (unknown origin); format: ADME
Cytochrome P450 2C9 = Cytochrome P450 2C9 (Homo sapiens, UniProt P11712); experiment: Inhibition of CYP2C9 (unknown origin); format: ADME
Cytochrome P450 2D6 = Cytochrome P450 2D6 (Homo sapiens, UniProt P10635); experiment: Inhibition of CYP2D6 (unknown origin); format: ADME
Cytochrome P450 3A4 = Cytochrome P450 3A4 (Homo sapiens, UniProt P08684); experiment: Inhibition of CYP3A4 (unknown origin); format: ADME
Cytochrome P450 1A2 = target: T5, Cytochrome P450 1A2 (Homo sapiens, UniProt P05177); experiment: Inhibition of CYP1A2 (unknown origin); format: ADME
T5 sequence (P05177 whole entry): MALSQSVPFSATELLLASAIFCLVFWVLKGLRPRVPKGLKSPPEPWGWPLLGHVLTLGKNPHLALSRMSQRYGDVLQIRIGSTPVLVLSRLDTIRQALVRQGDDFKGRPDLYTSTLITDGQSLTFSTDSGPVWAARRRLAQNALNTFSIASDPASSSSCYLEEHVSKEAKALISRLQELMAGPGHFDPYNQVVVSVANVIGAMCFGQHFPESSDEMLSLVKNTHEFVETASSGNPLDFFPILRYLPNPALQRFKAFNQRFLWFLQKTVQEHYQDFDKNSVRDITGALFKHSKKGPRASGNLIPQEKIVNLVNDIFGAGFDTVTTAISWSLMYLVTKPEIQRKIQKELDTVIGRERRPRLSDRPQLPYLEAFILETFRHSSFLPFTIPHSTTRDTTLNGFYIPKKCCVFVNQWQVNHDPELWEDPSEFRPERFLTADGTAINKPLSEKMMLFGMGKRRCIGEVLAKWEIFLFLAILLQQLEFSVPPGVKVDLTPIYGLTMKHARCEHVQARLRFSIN

[5] = target: T6, 5-hydroxytryptamine receptor 3A (Homo sapiens) (UniProt P46098); experiment: Partial agonist activity at human 5-HT3A receptor expressed in HEK293 cells assessed as change in Ca2+ level measured as intrinsic activity at 1 uM relative to 5-HT in presence of carbachol; format: cell-based
T6 sequence (whole entry): T2 sequence (P46098 whole entry)

[6] = target: T2, 5-hydroxytryptamine receptor 3A; experiment: Displacement of [9-methyl-3H]BRL-43694 from human 5-HT3A receptor after overnight incubation by scintillation proximity assay
Mus musculus [7] = experiment: Inhibition of 5-HT induced-bradycardia in ICR mouse von Bezold-Jarisch reflex model at 3 mg/kg, po after 60 mins relative to control; format: functional; conditions: 1 h
Mus musculus [8] = experiment: Inhibition of 5-HT induced-bradycardia in ICR mouse von Bezold-Jarisch reflex model at 1 mg/kg, po after 60 mins relative to control; format: functional; conditions: 1 h

Sequence of Cytochrome P450 3A4 (P08684 whole entry): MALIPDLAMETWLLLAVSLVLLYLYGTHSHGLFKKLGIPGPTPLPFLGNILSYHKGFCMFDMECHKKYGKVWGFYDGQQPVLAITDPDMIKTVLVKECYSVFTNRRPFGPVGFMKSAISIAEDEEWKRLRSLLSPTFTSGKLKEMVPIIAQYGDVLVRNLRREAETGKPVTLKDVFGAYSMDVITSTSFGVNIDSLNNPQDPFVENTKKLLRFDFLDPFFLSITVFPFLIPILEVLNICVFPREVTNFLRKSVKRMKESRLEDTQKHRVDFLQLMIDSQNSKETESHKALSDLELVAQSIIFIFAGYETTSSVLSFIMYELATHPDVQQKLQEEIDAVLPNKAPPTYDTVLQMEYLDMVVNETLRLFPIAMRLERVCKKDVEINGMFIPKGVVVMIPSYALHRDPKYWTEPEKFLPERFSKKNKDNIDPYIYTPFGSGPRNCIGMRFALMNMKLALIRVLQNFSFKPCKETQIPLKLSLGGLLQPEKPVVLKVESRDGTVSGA
Sequence of Cytochrome P450 2D6 (P10635 whole entry): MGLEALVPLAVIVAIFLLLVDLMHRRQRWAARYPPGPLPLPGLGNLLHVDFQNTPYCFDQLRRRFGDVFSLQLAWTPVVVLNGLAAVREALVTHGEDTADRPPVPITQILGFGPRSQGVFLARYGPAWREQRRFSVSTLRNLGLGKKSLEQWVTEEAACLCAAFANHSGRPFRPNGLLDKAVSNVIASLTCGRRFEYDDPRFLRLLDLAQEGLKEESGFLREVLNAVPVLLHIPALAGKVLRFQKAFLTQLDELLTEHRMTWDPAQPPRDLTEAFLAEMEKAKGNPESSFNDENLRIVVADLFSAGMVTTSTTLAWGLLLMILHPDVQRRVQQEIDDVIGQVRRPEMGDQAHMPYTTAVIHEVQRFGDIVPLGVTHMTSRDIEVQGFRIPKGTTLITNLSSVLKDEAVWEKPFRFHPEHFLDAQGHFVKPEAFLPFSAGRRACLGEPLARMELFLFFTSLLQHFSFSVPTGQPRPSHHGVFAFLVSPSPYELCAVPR
Sequence of Cytochrome P450 2C19 (P33261 whole entry): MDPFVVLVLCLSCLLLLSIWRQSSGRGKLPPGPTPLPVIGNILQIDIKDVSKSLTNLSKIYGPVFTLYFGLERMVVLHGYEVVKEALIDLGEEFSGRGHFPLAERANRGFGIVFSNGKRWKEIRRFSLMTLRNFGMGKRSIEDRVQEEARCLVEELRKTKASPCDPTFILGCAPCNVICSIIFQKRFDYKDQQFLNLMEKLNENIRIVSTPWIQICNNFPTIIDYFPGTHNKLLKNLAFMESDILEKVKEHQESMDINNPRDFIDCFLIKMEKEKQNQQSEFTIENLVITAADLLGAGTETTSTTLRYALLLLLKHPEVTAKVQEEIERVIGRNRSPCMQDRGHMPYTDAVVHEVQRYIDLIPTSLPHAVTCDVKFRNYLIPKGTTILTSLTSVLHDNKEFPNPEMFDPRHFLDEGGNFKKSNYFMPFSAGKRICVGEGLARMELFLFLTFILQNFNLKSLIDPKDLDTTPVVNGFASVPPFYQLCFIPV
Sequence of Cytochrome P450 2C9 (P11712 whole entry): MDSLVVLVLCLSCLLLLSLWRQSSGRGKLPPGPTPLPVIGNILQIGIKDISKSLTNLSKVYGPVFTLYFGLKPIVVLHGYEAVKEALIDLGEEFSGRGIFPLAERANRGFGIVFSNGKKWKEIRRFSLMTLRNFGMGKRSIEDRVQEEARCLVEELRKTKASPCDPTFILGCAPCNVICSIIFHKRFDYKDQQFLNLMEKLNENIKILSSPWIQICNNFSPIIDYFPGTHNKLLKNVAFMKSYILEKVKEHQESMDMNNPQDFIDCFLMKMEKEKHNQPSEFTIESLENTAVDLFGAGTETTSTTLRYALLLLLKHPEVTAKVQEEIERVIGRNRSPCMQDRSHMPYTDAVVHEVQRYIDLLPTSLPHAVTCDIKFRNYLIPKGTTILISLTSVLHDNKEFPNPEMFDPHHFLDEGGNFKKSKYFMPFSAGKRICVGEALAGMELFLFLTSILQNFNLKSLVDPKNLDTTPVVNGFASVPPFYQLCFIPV

With `O=C1c2cc(Cl)cc3cnn(c23)CCN1[C@@H]1CN2CCC1CC2` the pEC50 [1] was 6.75, the pEC50 [2] was 6.75 and the microsomal CLint [3] was 3.1 µL/min/mg. For the same compound, the pIC50 (Cytochrome P450 2B6) was under 4.30, the Activity [4] was 27% and the pIC50 (Cytochrome P450 2C19) was under 4.30. For the same compound, the pIC50 (Cytochrome P450 2C9) was under 4.30, the pIC50 (Cytochrome P450 2D6) was under 4.30 and the pIC50 (Cytochrome P450 3A4) was under 4.30. It also gave a pIC50 (Cytochrome P450 1A2) of under 4.30 and an Activity [5] of 28%.

For `Cc1cc2c3c(cnn3CCN([C@@H]3CN4CCC3CC4)C2=O)c1`, the pKi [6] was 9.10.

Compound `O=C1c2cccc3[nH]c(=O)n(c23)CCN1[C@@H]1CN2CCC1CC2` has a pEC50 [2] of 6.75, a pKi [6] of 8.24 and a microsomal CLint [3] of 8.4 µL/min/mg. The pIC50 (Cytochrome P450 2B6) was under 4.30, the pIC50 (Cytochrome P450 2C19) was under 4.30 and the pIC50 (Cytochrome P450 2C9) was under 4.30. For the same compound, the pIC50 (Cytochrome P450 2D6) was under 4.30, the pIC50 (Cytochrome P450 3A4) was under 4.30 and the pIC50 (Cytochrome P450 1A2) was under 4.30. For the same compound, the Activity [5] was 83%.

In the case of `O=C1c2cc(F)cc3cnn(c23)CCN1[C@@H]1CN2CCC1CC2`, the pEC50 [1] was 6.75, the pEC50 [2] was 6.75 and the pKi [6] was 8.19. For the same compound, the microsomal CLint [3] was 8.8 µL/min/mg, the pIC50 (Cytochrome P450 2B6) was under 4.30 and the Activity [4] was 31%. The pIC50 (Cytochrome P450 2C19) was under 4.30, the pIC50 (Cytochrome P450 2C9) was under 4.30 and the pIC50 (Cytochrome P450 2D6) was under 4.30. For the same compound, the pIC50 (Cytochrome P450 3A4) was under 4.30, the pIC50 (Cytochrome P450 1A2) was under 4.30 and the Activity [5] was 30%.

Work on `Cc1cn2c3c(cc(Cl)cc13)C(=O)N([C@@H]1CN3CCC1CC3)CC2` yielded a microsomal CLint [3] of 2.3 µL/min/mg and a pIC50 (Cytochrome P450 1A2) of 5.06.

In the case of `O=C1c2cccc3cnn(c23)CCN1[C@@H]1CN2CCC1CC2`, the pEC50 [1] was 6.75, the pEC50 [2] was 6.75 and the pKi [6] was 8.09. The microsomal CLint [3] was under 1.7 µL/min/mg, the pIC50 (Cytochrome P450 2B6) was under 4.30 and the Activity [4] was 16%. It also gave a pIC50 (Cytochrome P450 2C19) of under 4.30, a pIC50 (Cytochrome P450 2C9) of under 4.30 and a pIC50 (Cytochrome P450 2D6) of under 4.30. It also gave a pIC50 (Cytochrome P450 3A4) of under 4.30, a pIC50 (Cytochrome P450 1A2) of under 4.30 and an inhibition in vivo at 3 mg/kg (Mus musculus [7]) of 77%. The Activity [5] was 19%.

`O=C1c2cccc3ccn(c23)CCN1[C@H]1CN2CCC1CC2` gave a pKi [6] of 7.17.

`COc1cc2c3c(cnn3CCN([C@@H]3CN4CCC3CC4)C2=O)c1` showed a pEC50 [1] of 6.75, a pEC50 [2] of 6.75 and a pKi [6] of 7.87. It also gave a microsomal CLint [3] of 1.8 µL/min/mg, a pIC50 (Cytochrome P450 2B6) of under 4.30 and an Activity [4] of 81%. The pIC50 (Cytochrome P450 2C19) was under 4.30, the pIC50 (Cytochrome P450 2C9) was under 4.30 and the pIC50 (Cytochrome P450 2D6) was under 4.30. It also gave a pIC50 (Cytochrome P450 3A4) of under 4.30, a pIC50 (Cytochrome P450 1A2) of under 4.30 and an Activity [5] of 87%.

`Cc1[nH]cnc1CN1CCc2c(c3ccccc3n2C)C1=O` [ALOSETRON] showed an inhibition in vivo at 1 mg/kg (Mus musculus [8]) of 95% and a microsomal CLint [3] of 3 µL/min/mg.

In the case of `O=C1c2cccc3ccn(c23)CCN1[C@@H]1CN2CCC1CC2`, the pEC50 [2] was 6.75, the pKi [6] was 8.51 and the microsomal CLint [3] was under 1.7 µL/min/mg. It also gave a pIC50 (Cytochrome P450 2B6) of under 4.30, a pIC50 (Cytochrome P450 2C19) of under 4.30 and a pIC50 (Cytochrome P450 2C9) of under 4.30. It also gave a pIC50 (Cytochrome P450 2D6) of under 4.30, a pIC50 (Cytochrome P450 3A4) of under 4.30 and a pIC50 (Cytochrome P450 1A2) of under 4.30. The Activity [5] was 7%.
